Results as given in US20240309059A1, “PEPTIDE HAVING ANTI-VIRAL ACTIVITY, ANTI-VIRAL AGENT COMPRISING SAID PEPTIDE, AND METHOD FOR PRODUCING SAID ANTI-VIRAL AGENT” (National University Corporation Tokyo Medical and Dental …, priority 2021, published 2024).
Ends that are not written are not given here.

Columns and labels:
[1] = solubility to 50 mM HEPES buffer solution (pH 8.0); type: physicochemical; conditions: room temperature
Protocol: In this Example, Ce113, Ce149, Ce172, Ce173 and Ce174 developed in the aforementioned Examples were each dissolved in 50 mM HEPES buffer solution (pH 8.0) and the degrees of solubility of them to 50 mM HEPES buffer solution (pH 8.0) were computationally obtained.
Ce113, Ce149, Ce172, Ce173 and Ce174 having the aforementioned amino acid sequences were chemically synthesized and each dissolved in a 50 mM HEPES buffer solution (pH 8.0). To describe more specifically, the peptides chemically synthesized were each added to the 50 mM HEPES buffer solution (pH 8.0) of 250 μL and stirred by pipetting using a micropipette a sufficient number of times and allowed to stand still at room temperature. When undissolved residue was not present, the peptide was further added and the same operation was repeated. When undissolved residue was present, the sample was allowed to stand still for 10 minutes, stirred by pipetting using a micropipette a sufficient number of times and allowed to stand still at room temperature. The operation of this step was repeated further twice and then concentration was measured by NanoPhotometer NP80 manufactured by IMPLEN to evaluate the degrees of solubility to the 50 mM HEPES buffer solution (pH 8.0).

[2] = solubility to ultra-pure water; type: physicochemical; conditions: room temperature
Protocol: In this Example, Ce4, Ce9, Ce41 and Ce59 developed in the aforementioned Examples were each dissolved in ultra-pure water and the degrees of solubility of them to ultra-pure water were computationally obtained.
Ce4, Ce9, Ce41 and Ce59 having the aforementioned amino acid sequences were chemically synthesized and each dissolved in ultra-pure water. To describe more specifically, the peptides chemically synthesized were each added to ultra-pure water of 250 μL and stirred by pipetting using a micropipette a sufficient number of times and allowed to stand still at room temperature. When undissolved residue was not present, the peptide was further added and the same operation was repeated. When undissolved residue was present, the sample was allowed to stand still for 10 minutes, again stirred by pipetting using a micropipette a sufficient number of times and allowed to stand still at room temperature. After the operation in this step was repeated further twice, concentration was measured by NanoPhotometer NP80 manufactured by IMPLEN to evaluate the degrees of solubility to ultra-pure water.

[3] = molecular target: receptor binding domain (RBD) in wild-type SARS-COV-2 (Severe acute respiratory syndrome coronavirus 2, UniProt P0DTC2); conditions: result in words (binding rate and degree of dissociation)

CC[C@H](C)[C@H](NC(=O)[C@H](CC(C)C)NC(=O)[C@H](CC(=O)O)NC(=O)[C@H](CO)NC(=O)[C@@H](NC(=O)[C@H](CCCNC(=N)N)NC(=O)[C@H](CCSC)NC(=O)[C@H](CO)NC(=O)[C@H](C)NC(=O)[C@H](CCC(=O)O)NC(=O)[C@H](C)NC(=O)[C@H](Cc1c[nH]cn1)NC(=O)CNC(=O)[C@H](CC(C)C)NC(=O)[C@H](CCC(=O)O)NC(=O)[C@H](CC(=O)O)NC(=O)[C@H](CC(C)C)NC(=O)[C@H](CC(C)C)NC(=O)[C@H](CCCNC(=N)N)NC(=O)[C@H](CCSC)NC(=O)[C@@H](NC(=O)[C@H](CCC(=O)O)NC(=O)[C@H](Cc1ccc(O)cc1)NC(=O)[C@@H](NC(=O)[C@H](CCCCN)NC(=O)[C@H](CCC(N)=O)NC(=O)[C@H](CC(C)C)NC(=O)[C@@H](NC(=O)[C@H](Cc1c[nH]c2ccccc12)NC(=O)[C@H](CCC(=O)O)NC(=O)[C@H](CCCCN)NC(=O)[C@@H](N)CC(=O)O)[C@@H](C)CC)[C@@H](C)CC)[C@@H](C)CC)C(C)C)C(=O)N[C@@H](Cc1ccc(O)cc1)C(=O)N[C@@H](CCC(=O)O)C(=O)N[C@@H](Cc1ccccc1)C(=O)N[C@@H](CCSC)C(=O)N[C@@H](CCCCN)C(=O)N[C@@H](CCCCN)C(=O)NCC(=O)O [Ca1, reference compound]
IC50 (wild-type SARS-COV-2): 107 nM

CC[C@H](C)[C@H](NC(=O)[C@H](CC(C)C)NC(=O)[C@H](CC(=O)O)NC(=O)[C@H](CO)NC(=O)[C@@H](NC(=O)[C@H](CCCNC(=N)N)NC(=O)[C@H](CCSC)NC(=O)[C@H](CO)NC(=O)[C@H](C)NC(=O)[C@H](CCC(=O)O)NC(=O)[C@H](C)NC(=O)[C@H](Cc1c[nH]cn1)NC(=O)CNC(=O)[C@H](CC(C)C)NC(=O)[C@H](CCC(=O)O)NC(=O)[C@H](CC(=O)O)NC(=O)[C@H](CC(C)C)NC(=O)[C@H](CC(C)C)NC(=O)[C@H](CCCNC(=N)N)NC(=O)[C@H](CCSC)NC(=O)[C@@H](NC(=O)[C@H](CCC(=O)O)NC(=O)[C@H](Cc1ccc(O)cc1)NC(=O)[C@@H](NC(=O)[C@H](CCCCN)NC(=O)[C@H](CCC(N)=O)NC(=O)[C@H](CC(C)C)NC(=O)[C@@H](NC(=O)[C@H](Cc1c[nH]c2ccccc12)NC(=O)[C@H](CCC(=O)O)NC(=O)[C@H](CCCCN)NC(=O)[C@@H](N)CC(=O)O)[C@@H](C)CC)[C@@H](C)CC)[C@@H](C)CC)C(C)C)C(=O)N[C@@H](Cc1ccc(O)cc1)C(=O)N[C@@H](CCC(=O)O)C(=O)N[C@@H](Cc1ccccc1)C(=O)N[C@@H](CCSC)C(=O)N[C@@H](CCCCN)C(=O)N[C@@H](CCCCN)C(=O)N[C@@H](CC(=O)O)C(=O)O [Ce1]
IC50 (wild-type SARS-COV-2): 1.5 nM

DKEWILQKIYEIMQRLDEEGHGEASLMVSDLIYEFMKRD [Ce113]
solubility thermodynamic at 30 min [1]: 2500 µM

DKEWILQKIYEIMRKLDEDGHAEASMRVSDLIYEFMKKD [Ce4]
solubility thermodynamic at 30 min [2]: 4400 µM

DKEWILQKIYEIMRRLDEEGHAEASMRVSDLIYEFMKKD [Ce9]
solubility thermodynamic at 30 min [2]: 5200 µM
IC50 (wild-type SARS-COV-2): 0.4 nM

DKEWILQKIYEIMRRLDEEGHGEASLRVSDLIYEFMKKD [Ce41]
binding activity to the receptor binding domain (RBD) [3]: high binding activity
solubility [2]: 6100 µM

DKEWILQKIYEIMRRLDEEGHGEASLRVSDLIYEFMKRD [Ce59]
solubility thermodynamic at 30 min [2]: 6100 µM

DKEWILYKIYEIMQRLDEEGHGEASLMVSDLIYEFMKRD [Ce174]
solubility thermodynamic at 30 min [1]: 1600 µM

DKEWILYKIYEIMVRLDEEGHGEASLMVSDLIYEFMKRD [Ce149]
solubility thermodynamic at 30 min [1]: 1300 µM

DKLWILQKIYEIMQRLDEEGHGEASLMVSDLIYEFMKRD [Ce173]
solubility thermodynamic at 30 min [1]: 1500 µM

DKLWILQKIYEIMVRLDEEGHGEASLMVSDLIYEFMKRD [Ce172]
solubility thermodynamic at 30 min [1]: 1100 µM
